Data set [1] has as its target T1, KRAS(G12C) and SOS1 binding (Homo sapiens, UniProt Q07889).
T1 sequence (Q07889 564-1049): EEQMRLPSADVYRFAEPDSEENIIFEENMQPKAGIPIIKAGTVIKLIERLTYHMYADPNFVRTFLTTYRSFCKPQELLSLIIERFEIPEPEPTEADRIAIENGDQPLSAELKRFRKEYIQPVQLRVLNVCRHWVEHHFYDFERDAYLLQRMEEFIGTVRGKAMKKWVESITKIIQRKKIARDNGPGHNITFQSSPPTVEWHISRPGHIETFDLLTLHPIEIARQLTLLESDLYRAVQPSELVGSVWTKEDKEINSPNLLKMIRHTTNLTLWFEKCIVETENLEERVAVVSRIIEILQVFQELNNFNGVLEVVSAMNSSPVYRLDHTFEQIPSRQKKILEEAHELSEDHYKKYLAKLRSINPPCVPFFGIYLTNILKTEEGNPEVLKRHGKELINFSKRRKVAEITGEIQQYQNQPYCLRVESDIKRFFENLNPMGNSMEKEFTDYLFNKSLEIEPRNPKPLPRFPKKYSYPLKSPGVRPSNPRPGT
Nature of the data set: KRAS (G12C) and SOS1 binding assay (HTRF). Particulars: 25° C., 60 minutes, read-out: IC50, inhibitory activity on KRAS(G12C) and SOS1 binding. The procedure:
(§1) 1. Experimental Materials:
Multifunctional microplate reader Nivo5 was purchased from PerkinElmer.
2. Preparation of 1× Buffer:
The buffer for this experiment was the current preparation.
Preparation method: 4-Hydroxyethylpiperazineethanesulfonic acid (Hepes): 5 mM; sodium chloride (NaCl): 150 mM; ethylenediaminetetraacetic acid (EDTA): 10 mM; CO-630 (Igepal): 0.0025%; potassium fluoride (KF): 100 mM; dithiothreitol (DTT): 1 mM; bovine serum albumin (BSA): 0.05%.
• 1) The compounds to be tested were diluted 5-fold with DMSO to the eighth concentration using a row gun, that is, from 1 mM to 0.064 μM. • 2) Each gradient of the compounds to be tested were diluted with 1× buffer into a working solution of 2% DMSO, 5 μL/well was added to the corresponding well, corresponding to a concentration gradient of 20 μM to […], and a double-duplication experiment was set up. The working solution was centrifuged at 1000 rpm for 1 minute. • 3) A mixed working solution of KRAS (G12C) (200 nM) and Mab Anti GST-Eu cryptate (1 ng/μL) was prepared with 1× buffer, then the mixed working solution was incubated at 25° C. for 5 minutes, and 2.5 μL/well was added to the corresponding well. • 4) A mixed working solution of SOS1 (80 nM) and Mab Anti 6HIS-XL665 ([…]) was prepared with 1× buffer, 2.5 μL/well was added to the corresponding well; 2.5 μL of Mab Anti 6HIS-XL665 ([…]) diluent was added to the blank well (Blank), at this time the final concentration gradient of the compounds was 10 μM diluted to 0.64 nM, KRAS (G12C) ([…]), MAb Anti GST-Eu cryptate (0.25 ng/μL), SOS1 (20 nM), Mab Anti 6HIS-XL665 (2 g/μL), and the reaction system was placed at 25° C. for 60 minutes. A multi-label analyzer was used for reading HTRF after the reaction was completed. 4. Data Analysis:
Using the equation (Sample−Min)/(Max−Min)×100% to convert the raw data into inhibition rate, and the value of IC50 might be obtained by curve fitting with four parameters (obtained by “Log(inhibitor) vs. response-Variable slope” mode in GraphPad Prism). Table 1 provides the inhibitory activity of the compounds of the present disclosure on KRAS(G12C) and SOS1 binding.
Background: In TR-FRET formats the signal depends on donor and acceptor labels being close together.

Data set [2] in a line: Pharmacokinetic study in mice. It is filed as in vivo. Particulars: mouse, plasma; for AUC(0-t): read-out: AUC0-24 h. The procedure:
The purpose of this experiment is to evaluate the pharmacokinetic behavior of the compounds after a single intravenous injection or intragastric administration in mice. For intravenous injection, the compound was prepared as a clear solution of 0.2 mg/mL, vehicle: 5% DMSO/95% (10% hydroxypropyl-β-cyclodextrin) aqueous solution; for intragastric administration, the compound was prepared as a suspension of 0.3 mg/mL, vehicle: 5% DMSO/95% (10% hydroxypropyl-β-cyclodextrin) aqueous solution.
The concentrations of compounds in plasma were determined by high performance liquid chromatography-tandem mass spectrometry (LC-MS/MS). Retention time of compounds and internal standard (diclofenac), chromatogram acquisition and integration of chromatogram were processed using the software Analyst (Applied Biosystems), and statistics of the data were processed using the software Watson LIMS (Thermo Fisher Scientific) or Analyst (Applied Biosystems). The concentration of analytes in the sample was expressed in ng/mL, with 3 valid digits retained. All values expressed as percentages (for example, % deviation and % coefficient of variation, etc.) were retained to one decimal point. Each calibration curve contained at least 6 concentration levels. The calibration specimen should be prepared using a stock solution from a different source than the quality control sample. The deviation between the calculated concentration of the calibration specimen and the indicated value exceeds ±15.0% (the lower limit of quantification exceeds ±20.0%) and the specimen should be rejected in the regression analysis. The rejected calibration specimens should be less than 25% and each calibration curve should contain at least 6 calibration specimens that meet the acceptance criteria. If the lower and upper limits of quantification calibration specimens need to be rejected, the upper and lower limits of quantification for the analytical batch will be raised and lowered accordingly.
Plasma concentrations were processed using the non-compartmental model of WinNonlin™ Version 6.3 (Pharsight, Mountain View, CA) pharmacokinetic software, and pharmacokinetic parameters were calculated using the linear-log trapezoidal method. The pharmacokinetic parameters to be calculated include but are not limited to (data permitting) T1/2, Vdss, CL, AUC0-24 h of IV group; Cmax, Tmax, AUC0-24 h, oral bioavailability (F %) of PO group.
The relevant pharmacokinetic parameters of the embodiment of the present disclosure in mice intravenously injected at a dose of 1 mg/Kg and intragastrically administered at a dose of 3 mg/Kg are shown in Table 5 below.

In data set [3] the test system is A427 cells. In words: In vitro anti-proliferation assay of A427 cells (KRAS G12D). It is filed as cell-based. Particulars: Homo sapiens, A-427, 336 h; A427 cells in agarose gel, 14 days, Almar blue; read-out: IC50, inhibitory activity on the proliferation of A427 cells.
Source text: as §1
EMEM culture medium, fetal bovine serum, penicillin/streptomycin antibiotics were purchased from Wisent, and low melting point agarose was purchased from Sigma. Almar blue reagent was purchased from Invitrogen. A427 cell line was purchased from Nanjing Cobioer Biotechnology Co., Ltd. Envision multi-label analyzer (PerkinElmer).
• 1) A427 cells were planted in a 96-well U-shaped plate, and the low melting point agarose was first prepared into a 2% mother solution. When used, the agarose mother solution was first heated in a microwave oven to completely melt, and then placed in a 42° C. water bath to keep the agarose in a liquid state. The gel was added to a serum-containing medium to prepare a gel concentration of 0.6% as the base gel, and spread into a 96-well U-shaped plate at 50 μL per well. After the base gel was solidified, 2% gel was added to a cell-containing medium to prepare a gel concentration of 0.4% of cell-containing top gel with a cell density of 4×10^4 cells/mL, which was added to a 96-well U-shaped plate spread with base gel at 75 μL per well with a cell density of 3000 cells per well. After the top gel was solidified, the cell plate was incubated overnight in a CO2 incubator. • 2) On the day of adding the compounds, 85 μL of liquid medium was added to the 96-well U-shaped plate in which the cells were spread. The compounds to be tested were diluted 3-fold with a row gun to the ninth concentration, that is, from 6 mM to 0.9 μM, and a double-duplication experiment was set up. 97 μL of culture medium was added to a middle plate, and then 2.5 μL of gradient diluted compound per well was transferred to the middle plate according to the corresponding position. After being thoroughly mixed, 40 μL per well was transferred to the cell plate. The concentration range of the compound transferred to the cell plate was 30 μM to 4.5 nM. […] A multi-label analyzer was used for reading. […]

The mark [4] stands for this setting: po, intragastric administration, 3 mg/Kg.

Read-outs that look alike come from different tables or passages of the source. Where only a bound is given, the exact number is not on record here.

In the case of `C=CC(Nc1nc(C)nc2cc(=O)n(C3CCOCC3)cc12)c1cc(N)cc(C(F)(F)F)c1` (stereo not shown) [Compound 1], the IC50 in data set [1] is 32 nM.
Same read-out and setting: the result for `C=CC(Nc1nc(C)nc2cc(=O)n(C3(C)CCOC3)cc12)c1cc(N)cc(C(F)(F)F)c1` (stereo not shown) [Compound 2] reads 26 nM.
The same measure, in the same setting: the result for `C=CC(Nc1nc(C)nc2cc(=O)n(C3(CF)CC3)cc12)c1cc(N)cc(C(F)(F)F)c1` (stereo not shown) [Compound 3] reads 25 nM.
Same read-out and setting: the figure for `C=CC(Nc1nc(C)nc2cc(=O)n(C34CCC(O)(CC3)CC4)cc12)c1cc(N)cc(C(F)(F)F)c1` (stereo not shown) [Compound 4] is 21 nM.
On to `C=C[C@@H](Nc1nc(C)nc2cc(=O)n(C3(C(F)F)CC3)cc12)c1cc(C(F)(F)CO)cs1` [Compound 7], for which, in data set [1], the IC50 is 13 nM.
As usually defined, the clearance is a measure of how efficiently the substance is removed, as volume per time. Read a low clearance as a low capacity for elimination. For orientation: half-life means how long it takes for the measured level to halve. Lower therefore signals rapid decline. One may read the Cmax as the highest concentration seen after dosing. The Tmax is the time at which the peak concentration occurs. Consider `C=C[C@@H](Nc1nc(C)nc2cc(=O)n(C3(C(F)F)CC3)cc12)c1cccc(C(F)F)c1F` [Compound 8], for which, in data set [2] (intravenous injection, 1 mg/Kg), the clearance came out at 30.5 mL/min/kg, the half-life was 40.2 min and the AUC(0-t) is 1.77 µM·h. Also, in data set [2] (intravenous injection, 1 mg/Kg, read-out: Vdss), the Vd is 1.84 L/kg. The bioavailability in data set [2] (oral, intragastric 3 mg/Kg vs intravenous 1 mg/Kg, read-out: F % (oral bioavailability)) stood at 109%. Besides, in data set [2] (setting [4]), the Cmax amounted to 1380 nM, the Tmax is 60 min and the AUC(0-t) was found to be 4.11 µM·h. Further, the IC50 in data set [3] is at most 100 nM.
On to `C=C[C@@H](Nc1nc(C)nc2cc(=O)n(C3(C)CCN(C(C)=O)C3)cc12)c1cccc(C(F)F)c1F` (stereo partly shown) [Compound 13], for which, in data set [3], the IC50 is at most 100 nM.
Same read-out and setting: the result for `C=C[C@@H](Nc1nc(C)nc2cc(=O)n(C3(C(F)F)CCN(C(C)=O)C3)cc12)c1cccc(C(F)F)c1F` (stereo partly shown) [Compound 15] reads at most 100 nM.

Values taken from patent US12552787B2, “Quinazoline compound” (MEDSHINE DISCOVERY INC., priority 2020, dated 2026).
